Here are results for 26 compounds from article PMC11175440, “Exploring hydrophilic 2,2-di(indol-3-yl)ethanamine derivatives against Leishmania infantum” (PLOS ONE, 2024).

Entries after “also recorded” stand apart in the source; their conditions may differ.

Data set [1] concerns L. infantum MHOM/TN/80/IPT1 promastigotes. Briefly: L. infantum promastigotes viability assay. The class given is cell-based. Conditions: 72 h; for IC50: scalar dilutions from 20 to 0.31 μM, mean and 95% CI; for inhibition at 20 µM: single dose 20 μM, 26°C. The method, then:
The reference strain L. infantum MHOM/TN/80/IPT1 (WHO international reference strain) was purchased from ATCC (ATCC® 50134™) and cultured in Evans’s Modified Tobie Medium (EMTM) at 26–28°C. During the treatment with bisindole derivative compounds, the parasites were maintained in RPMI-PY medium as described previously
The activity of bisindole derivatives was first evaluated on late log/stationary phase L. infantum promastigotes resuspended in 96-well plates (100 μL/well) in complete RPMI-PY medium with a density of 2.5×10^6 parasites/mL. The anti-parasitic activity was initially investigated with the single dose of 20 μM of each compound for 72 h at 26°C. […] As positive control, the anti-leishmanial drug miltefosine (Sigma-Aldrich, Milan, Italy) was included. Each condition was carried out in duplicate. The promastigotes viability was evaluated using the CellTiter 96H aqueous non-radioactive cell proliferation assay (Promega, Madison, Wisconsin, USA), as previously reported. The efficacy of selected compounds was evaluated by determining the IC50 values using the non-linear regression curves in GraphPad Prism 8.0 (GraphPad Software, Inc., San Diego, CA, USA). The equation used for data fitting was Y = 100/(1+10^((LogIC50-X)*HillSlope)) (hillslope not constrained), where X is equal to the log of concentration and Y is the normalized response.

Data set [2] is described as follows: Cytotoxicity assay on PMA-differentiated THP-1 macrophage-like cells. The class given is cell-based, human. As to conditions: human, PMA-differentiated THP-1 macrophage-like cells; 72 h, scalar dilutions from 100 to 3.12 μM; mean and 95% CI. The method, then: (§1) The human monocytic cell line THP-1 (ECACC 88081201) was cultured in RPMI-1640 medium supplemented with 10% heat-inactivated fetal bovine serum (FBS), 2 mM L-glutamine, 10 g/L non-essential amino acid, 1 mM sodium pyruvate, 100 μg/mL streptomycin, […]. Cells were maintained in a humidified incubator at 37°C and 5% CO2. All cell culture reagents were purchased from Sigma-Aldrich (St. Louis, MO, USA).
(§2) The cytotoxicity of bisindole derivative compounds was evaluated on THP-1 cells. Briefly, cells were resuspended at a density of 5×10^6 cells/mL, 100 μL/well were seeded in a 96-well plate and treated for 48 h with 20 ng/mL phorbol myristic acid (PMA) to induce differentiation into macrophages-like cells. After cell adhesion, selected compounds were used at 4, 20, and 100 μM, for 72 h at 37°C. […] Compounds with cytotoxicity higher than 20 μM were further tested to determine CC50 with scalar dilutions 1:2 or 2:3 (from 100 to 3.12 μM).
(§3) The negative control (not-treated cells) and the anti-leishmanial drug miltefosine were included in each experiment. Each condition was carried out in duplicate. To evaluate the cytotoxicity of the selected compounds, the CellTiter 96H Aqueous Non-Radioactive Cell Proliferation Assay (Promega) was performed as described above. For each compound, the SI was calculated as the ratio between cytotoxicity in THP-1 and activity against L. infantum promastigotes.

The test system of another data set is THP-1 cells. Described as above. Format: cell-based, human. Conditions: CC50 in THP-1 / IC50 against L. infantum promastigotes. The method, then: as §1, §2, §3
Data set [3] has as its system L. infantum intracellular amastigotes. In words: Anti-amastigote assay on infected THP-1 cells. As to conditions: Leishmania infantum; THP-1 cells infected 24 h, 72 h treatment, 20 to 0.31 μM; read-out: IC50 against L. infantum intracellular amastigotes. The class given is cell-based. The method, then:
THP-1 cells were plated in a 96-well plate and differentiated as described above. […] Briefly, Leishmania cells were washed twice with PBS to remove any trace of serum and resuspended 1×10^7/mL PBS. […] Labeled parasites were washed three times with complete RPMI medium and used for the infection. […] To analyze the infection, cells were washed, formaldehyde/methanol fixed, stained with Hoechst dye, and observed with a fluorescence microscope. Images were acquired (at 5× magnification) at 494 nm excitation/521 nm emission (green) and 350 nm excitation/460 emission (blue) for CFSE and Hoechst staining, respectively. Automated cell counting of single-color images was performed with ImageJ software to monitor the infection: the promastigotes count on each green image was normalized with the cell count on the corresponding blue image. […] To calculate IC50, the percentage values of Leishmania cell count normalized to THP-1 cells were plotted against the log10 concentration (μM) of each compound.

For another data set, the system named is infected THP-1 cells. In words: Cytotoxic effect on infected THP-1 cells (cell count, Hoechst staining). The class given is cell-based, human. Conditions: 72 h, 1.25-20 μM.

The term IC50 denotes the concentration needed to halve the response being measured. By inhibition is commonly meant the relative decrease from the control value, in per cent. Broadly, the CC50 is the concentration giving 50% cytotoxicity. Higher therefore signals lower toxicity to the cells. For the compound `O=C(NCC(c1c[nH]c2cc(Br)ccc12)c1c[nH]c2cc(Br)ccc12)c1ccc(F)cc1` [3b], in data set [1] (Leishmania infantum), the IC50 was determined as 9.5 µM and the inhibition at 20 µM is 97.7%. In data set [2], this compound showed a cytotoxic concentration (CC50) at 72 h of 21.9 µM. Besides, the “SI (CC50/IC50)” value in the data set with THP-1 cells is listed as 2.3.

Consider `Cc1ccc(S(=O)(=O)NCC(c2c[nH]c3cc(Br)ccc23)c2c[nH]c3cc(Br)ccc23)cc1` [4a], for which, in data set [1] (Leishmania infantum), the IC50 was 9.8 µM and the inhibition at 20 µM was 96.9%. For the same compound, the midpoint of cytotoxicity in data set [2], the CC50 at 72 h, lay at 20.2 µM. The “SI (CC50/IC50)” value in the data set with THP-1 cells was 2.1.

For the compound `O=C(NCC(c1c[nH]c2cc(Br)ccc12)c1c[nH]c2cc(Br)ccc12)c1cccs1` [3g], the inhibition at 20 µM in data set [1] (Leishmania infantum) was 96.9%.

As for `COC(=O)c1ccc2c(C(CN)c3c[nH]c4cc(C(=O)OC)ccc34)c[nH]c2c1` [1f], in data set [1] (Leishmania infantum), 8.2 µM corresponded to half-maximal inhibition (IC50) and the inhibition at 20 µM came to 89.7%. Further, the midpoint of cytotoxicity in data set [2], the CC50 at 72 h, lay at 40.1 µM. Besides, the “SI (CC50/IC50)” value in the data set on THP-1 cells worked out at 4.9.

Take `Cc1ccc(S(=O)(=O)NCC(c2cn(C)c3ccccc23)c2cn(C)c3ccccc23)cc1` [4b]: the inhibition at 20 µM in data set [1] (Leishmania infantum) came to 45.7%.

With `CC(C)CNCC(c1c[nH]c2cc(Br)ccc12)c1c[nH]c2cc(Br)ccc12` [2a], the inhibition at 20 µM in data set [1] (Leishmania infantum) turned out to be 97.8%.

Turning to `Brc1ccc2c(C(CNCc3cccs3)c3c[nH]c4cc(Br)ccc34)c[nH]c2c1` [2g], the inhibition at 20 µM in data set [1] (Leishmania infantum) came to 95.5%.

For the compound `Cn1cc(C(CN)c2cn(C)c3ccccc23)c2ccccc21` [1h], in data set [1] (Leishmania infantum), inhibition was half-maximal at 4.1 µM (IC50) and the inhibition at 20 µM came out at 98%. Half-maximal cytotoxicity in data set [2] (CC50 at 72 h) was put at 41.6 µM. For the same compound, the “SI (CC50/IC50)” value with THP-1 cells turned out to be 10.1. Further, the IC50 in data set [3] is 11.1 µM. The “cytotoxicity in the infection model” value in the data set with infected THP-1 cells is on record as “better toxicity profile than the commercial drug miltefosine; also recorded: better toxicity profile compared to the commercial drug miltefosine”.

`N#Cc1ccc2[nH]cc(C(CN)c3c[nH]c4ccc(C#N)cc34)c2c1` [1g]: in data set [1] (Leishmania infantum), the inhibition at 20 µM was -1.6%.

Take `O=[N+]([O-])c1ccc(CNCC(c2c[nH]c3cc(Br)ccc23)c2c[nH]c3cc(Br)ccc23)cc1` [2d]: in data set [1] (Leishmania infantum), it took 3.9 µM to reach half-maximal inhibition (IC50) and the inhibition at 20 µM came to 95%. The same compound gave a CC50 at 72 h in data set [2] of 13.2 µM. The “SI (CC50/IC50)” value in the data set on THP-1 cells is reported as 3.4.

As for `COc1ccc(C(=O)NCC(c2c[nH]c3cc(Br)ccc23)c2c[nH]c3cc(Br)ccc23)cc1` [3e], the IC50 was 12.2 µM in data set [1] and more than 10 µM in data set [1] (Leishmania infantum). Besides, the inhibition at 20 µM in data set [1] (Leishmania infantum) came out at 95.2%.

Take `O=C(NCC(c1c[nH]c2cc(Br)ccc12)c1c[nH]c2cc(Br)ccc12)c1ccc([N+](=O)[O-])cc1` [3d]: the inhibition at 20 µM in data set [1] (Leishmania infantum) was 90.4%.

In the case of `NCC(c1c[nH]c2cc(Cl)ccc12)c1c[nH]c2cc(Cl)ccc12` [1c], in data set [1] (Leishmania infantum), it took 7.4 µM to reach half-maximal inhibition (IC50) and the inhibition at 20 µM was found to be 95.6%. The midpoint of cytotoxicity in data set [2], the CC50 at 72 h, lay at 39.4 µM. Also, in the data set with THP-1 cells, the “SI (CC50/IC50)” value is on record as 5.3.

`NCC(c1c[nH]c2ccccc12)c1c[nH]c2ccccc12` [1a]: 12.9 µM corresponded to half-maximal inhibition in data set [1] (IC50). In addition, in data set [1] (Leishmania infantum), the IC50 was more than 10 µM and the inhibition at 20 µM was determined as 82.3%.

For the compound `O=C(NCC(c1c[nH]c2cc(Br)ccc12)c1c[nH]c2cc(Br)ccc12)c1ccco1` [3f], the inhibition at 20 µM in data set [1] (Leishmania infantum) amounted to 97.2%.

As to `NCC(c1c[nH]c2ccc(I)cc12)c1c[nH]c2ccc(I)cc12` [1e], in data set [1] (Leishmania infantum), the inhibition at 20 µM was determined as 97.8%.

With `Brc1ccc2c(C(CNCc3ccco3)c3c[nH]c4cc(Br)ccc34)c[nH]c2c1` [2f], the inhibition at 20 µM in data set [1] (Leishmania infantum) was found to be 95.2%.

Regarding `NCC(c1c[nH]c2cc(F)ccc12)c1c[nH]c2cc(F)ccc12` [1b], in data set [1] (Leishmania infantum), the IC50 was found to be 8.6 µM and the inhibition at 20 µM amounted to 89.1%. In data set [2], this compound gave a CC50 at 72 h of 40.4 µM. In the data set on THP-1 cells, the “SI (CC50/IC50)” value turned out to be 4.7.

`Fc1ccc(CNCC(c2c[nH]c3cc(Br)ccc23)c2c[nH]c3cc(Br)ccc23)cc1` [2b]: in data set [1] (Leishmania infantum), the inhibition at 20 µM was 98.2%.

Take `O=C(NCC(c1c[nH]c2cc(Br)ccc12)c1c[nH]c2cc(Br)ccc12)c1ccc(Cl)cc1` [3c]: the inhibition at 20 µM in data set [1] (Leishmania infantum) was 97.4%.

In the case of `NCC(c1c[nH]c2cc(Br)ccc12)c1c[nH]c2cc(Br)ccc12` [1d, 2,2-bis(6-bromo-1H-indol-3-yl)ethanamine], the inhibition at 20 µM in data set [1] (Leishmania infantum) was determined as 96.8%.

Take `Cc1ccc(CNCC(c2c[nH]c3cc(Br)ccc23)c2c[nH]c3cc(Br)ccc23)cc1` [2e]: the inhibition at 20 µM in data set [1] (Leishmania infantum) was determined as 95.8%.

As to `CC(C)C(=O)NCC(c1c[nH]c2cc(Br)ccc12)c1c[nH]c2cc(Br)ccc12` [3a], in data set [1] (Leishmania infantum), the inhibition at 20 µM was 96.7%.

As to `O=S(=O)(NCC(c1c[nH]c2cc(Br)ccc12)c1c[nH]c2cc(Br)ccc12)c1cccs1` [4c], the inhibition at 20 µM in data set [1] (Leishmania infantum) was 97.6%.

With `Cn1cc(C(CN)c2cn(C)c3cc(Br)ccc23)c2ccc(Br)cc21` [1i], the inhibition at 20 µM in data set [1] (Leishmania infantum) turned out to be 98%.

On to `Clc1ccc(CNCC(c2c[nH]c3cc(Br)ccc23)c2c[nH]c3cc(Br)ccc23)cc1` [2c], for which, in data set [1] (Leishmania infantum), 2.7 µM corresponded to half-maximal inhibition (IC50) and the inhibition at 20 µM is 98.1%. In data set [2], this compound yielded a CC50 at 72 h of 11.7 µM. Moreover, in the data set with THP-1 cells, the “SI (CC50/IC50)” value was determined as 4.3. Further, the IC50 in data set [3] was determined as 6.8 µM. In addition, in the data set with infected THP-1 cells, the “cytotoxicity in the infection model” value is recorded as “high cellular toxicity”.
